# Assay results published in PubChem BioAssay (NCI).
#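 How tested: cells in 96-well plates exposed to compound for 48 hours at five concentrations. The concentration for 50% growth inhibition is given as GI50. TGI denotes the concentration required for complete inhibition of growth.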
# Key:
# Assay in all cases: inhibition of tumour cell growth, NCI panel, 48 h
# [1] = tested on: EKVX NSCLC
# [2] = tested on: MOLT-4 leukemia
# [3] = tested on: NCI-H460 lung
# [4] = tested on: OVCAR-8 ovarian
# [5] = tested on: SF-268 CNS
# [6] = tested on: SF-295 CNS
# [7] = tested on: SK-MEL-28 melanoma
# [8] = tested on: SNB-19 CNS
# [9] = tested on: UO-31 renal
# [10] = tested on: NCI/ADR-RES ovarian
Structure (SMILES),TGI [1],TGI [2],TGI [3],TGI [4],TGI [5],TGI [6],TGI [7],TGI [8],TGI [9],GI50 [4],GI50 [1],GI50 [2],GI50 [10],TGI [10],GI50 [5],GI50 [6],GI50 [7],GI50 [8],GI50 [9],GI50 [3]
CC1CCCc2c1c1ccc3c(O)cccc3c1oc2=O (centres undefined),85.9 µM,> 100 µM,> 100 µM,> 100 µM,70.8 µM,33.8 µM,> 100 µM,> 100 µM,> 100 µM,,,,,,,,,,,
O=C(NC1C2CC3CC(C2)CC1C3)/C(Cl)=C1/Sc2ccccc2NC1=O (centres undefined),> 100 µM,> 100 µM,> 100 µM,> 100 µM,> 100 µM,> 100 µM,> 100 µM,> 100 µM,> 100 µM,,,,,,,,,,,
COc1nc2c(nc(N)n2C2OCC(O)C(O)C2O)c(=O)n1C (centres undefined),> 100 µM,> 100 µM,> 100 µM,> 100 µM,> 100 µM,> 100 µM,> 100 µM,> 100 µM,> 100 µM,,,,,,,,,,,
CCN(CC)c1ccc(N=C2C=C(Cl)C(=O)c3ncccc32)c(C)c1,36.8 µM,13.8 µM,39 µM,> 100 µM,,35.9 µM,91 µM,89.4 µM,41.6 µM,,,,,,,,,,,
CS(=O)(=O)N(CCC#N)c1ccc(C=O)cc1,> 100 µM,> 100 µM,> 100 µM,> 100 µM,> 100 µM,> 100 µM,> 100 µM,> 100 µM,> 100 µM,,,,,,,,,,,
N#Cc1ccc(Oc2cccc(Oc3ccccc3)c2)cc1C#N,> 100 µM,> 100 µM,> 100 µM,> 100 µM,> 100 µM,> 100 µM,> 100 µM,> 100 µM,61.6 µM,> 100 µM,,,,,,,,,,
O=C(O)c1ccccc1N=Nc1ccc2oc(=O)c(C(=O)Nc3ccccc3)cc2c1,> 100 µM,> 100 µM,> 100 µM,> 100 µM,,> 100 µM,> 100 µM,> 100 µM,> 100 µM,,,,,,,,,,,
O=S(=O)(NC1=NCCN1C(=S)SN1CCn2c1nsc2=S)c1ccccc1Cl,> 100 µM,14.1 µM,,> 100 µM,87.6 µM,61 µM,65.7 µM,> 100 µM,> 100 µM,28.6 µM,36.6 µM,2.02 µM,27.7 µM,> 100 µM,13.3 µM,21.4 µM,16.1 µM,41 µM,26.1 µM,
CN(C)CCCCn1ccc2c1C(=O)c1c(c(O)c3ccccc3c1O)C2=O,,,36.9 µM,25.6 µM,30.6 µM,15.5 µM,28.2 µM,30.5 µM,> 100 µM,11.5 µM,,,13.3 µM,27.5 µM,11 µM,4.63 µM,14.7 µM,14.6 µM,33 µM,19.2 µM
CCn1c(=O)c2ccccc2n2c(=O)c3cc4ccccc4cc3nc12,> 100 µM,> 100 µM,> 100 µM,> 100 µM,> 100 µM,80 µM,,> 100 µM,> 100 µM,,,,,,,,,,,
